How the values were obtained:
Homo sapiens [1] = species on record: Homo sapiens; assay: Selectivity ratio of Ki for human kappa opioid receptor to Ki for human mu opioid receptor
Mu-type opioid receptor = Mu-type opioid receptor (Homo sapiens, UniProt P35372); assay: Displacement of [3H]DAMGO from human mu opioid receptor expressed in CHO cells by liquid scintillation counting; assay type: cell-based
[2] = molecular target: Delta-type opioid receptor (Homo sapiens, UniProt P41143); assay: Displacement of [3H]DADLE from human delta opioid receptor expressed in CHO cells by liquid scintillation counting; assay type: cell-based
[3] = molecular target: Kappa-type opioid receptor (Homo sapiens, UniProt P41145); assay: Displacement of [3H]U69,593 from human kappa opioid receptor expressed in CHO cells by liquid scintillation counting; assay type: cell-based
Homo sapiens [4] = species on record: Homo sapiens; assay: Selectivity ratio of Ki for human delta opioid receptor to Ki for human mu opioid receptor

Sequence of Delta-type opioid receptor (P41143 whole entry): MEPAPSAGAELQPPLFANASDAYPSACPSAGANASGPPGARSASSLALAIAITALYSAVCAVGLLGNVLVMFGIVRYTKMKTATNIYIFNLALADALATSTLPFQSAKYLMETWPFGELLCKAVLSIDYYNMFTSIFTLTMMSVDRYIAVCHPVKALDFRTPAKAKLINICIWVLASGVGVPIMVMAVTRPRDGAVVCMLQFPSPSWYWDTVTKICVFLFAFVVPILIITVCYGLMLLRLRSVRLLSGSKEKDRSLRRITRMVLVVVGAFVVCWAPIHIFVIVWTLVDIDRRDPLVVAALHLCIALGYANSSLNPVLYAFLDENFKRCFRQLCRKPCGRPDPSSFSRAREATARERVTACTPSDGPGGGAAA
Sequence of Kappa-type opioid receptor (P41145 whole entry): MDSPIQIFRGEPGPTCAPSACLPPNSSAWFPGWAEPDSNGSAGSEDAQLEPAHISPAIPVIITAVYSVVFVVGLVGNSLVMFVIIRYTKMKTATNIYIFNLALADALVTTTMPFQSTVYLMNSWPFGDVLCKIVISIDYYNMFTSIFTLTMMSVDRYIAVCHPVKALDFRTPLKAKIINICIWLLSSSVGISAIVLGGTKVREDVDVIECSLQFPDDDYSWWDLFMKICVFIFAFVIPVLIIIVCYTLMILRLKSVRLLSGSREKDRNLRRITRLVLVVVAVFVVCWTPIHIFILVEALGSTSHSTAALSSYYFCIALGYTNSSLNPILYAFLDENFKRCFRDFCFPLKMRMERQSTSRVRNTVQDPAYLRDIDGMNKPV
Sequence of Mu-type opioid receptor (P35372 whole entry): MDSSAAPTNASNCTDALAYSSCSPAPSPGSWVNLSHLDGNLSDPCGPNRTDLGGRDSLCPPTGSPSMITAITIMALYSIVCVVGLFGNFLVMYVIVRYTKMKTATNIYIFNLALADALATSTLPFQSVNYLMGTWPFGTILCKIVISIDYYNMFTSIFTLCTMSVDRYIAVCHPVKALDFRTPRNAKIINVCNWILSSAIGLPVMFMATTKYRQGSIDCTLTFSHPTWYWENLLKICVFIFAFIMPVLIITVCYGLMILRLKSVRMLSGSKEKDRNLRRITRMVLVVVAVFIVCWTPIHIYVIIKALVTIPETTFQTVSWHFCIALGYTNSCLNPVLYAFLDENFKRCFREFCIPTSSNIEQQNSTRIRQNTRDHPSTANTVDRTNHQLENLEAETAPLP

| SMILES | Ratio Ki (Homo sapiens [1]) | Ki (Mu-type opioid receptor) | Ki [2] | Ki [3] | Ratio Ki (Homo sapiens [4]) |
| --- | --- | --- | --- | --- | --- |
| CS(=O)(=O)O[C@@H]1CC[C@@]2(O)[C@H]3Cc4ccc(O)c5c4[C@@]2(CCN3CC2CC2)[C@H]1O5 | 6.1 | 1.11 nM | 93.1 nM | 6.75 nM | 83.8 |
| Cc1ccc(S(=O)(=O)O[C@@H]2CC[C@@]3(O)[C@H]4Cc5ccc(O)c6c5[C@@]3(CCN4CC3CC3)[C@H]2O6)cc1 | 2.1 | 0.79 nM | 5.16 nM | 1.66 nM | 6.5 |
| O=C(O[C@@H]1CC[C@@]2(O)[C@H]3Cc4ccc(O)c5c4[C@@]2(CCN3CC2CC2)[C@H]1O5)N(c1ccccc1)c1ccccc1 | 26.3 | 0.56 nM | 74.6 nM | 14.7 nM | 133 |
| CN(C)C(=O)O[C@@H]1CC[C@@]2(O)[C@H]3Cc4ccc(O)c5c4[C@@]2(CCN3CC2CC2)[C@H]1O5 | 15.2 | 1.85 nM | 334 nM | 28.2 nM | 180 |

Source: ChEMBL document CHEMBL1153596, “Design, synthesis, and characterization of 6beta-naltrexol analogs, and their selectivity for in vitro opioid receptor subtypes” (Bioorg Med Chem Lett, 2009)
